Measurements published in patent US8309765B2, “Process for manufacture of high purity D-(−)-N,N-diethyl-2-(α-naphthoxy) propionamide” (United Phosphorus Limited, priority 2007, dated 2012).
In brackets after ≈: the same amount, converted by molar mass.

Legend:
water solubility = assay type: physicochemical
[1] = stability in the presence of UV radiation; assay type: physicochemical
certain weeds = conditions: cited from earlier work

Row | solubility (water solubility; water, at 20° C.) | SMILES | stability in the presence of UV radiation / UV light, colour change [1] | water solubility (water solubility) | activity relative to the (L)-isomer (certain weeds; (D)-isomer vs (L)-isomer) | activity relative to the racemic mixture (certain weeds; (D)-isomer vs racemic mixture)
1 | 73 µg/mL (≈ 269 µM) | CCN(CC)C(=O)C(C)Oc1cccc2ccccc12 (racemic) [Racemic form of -(−)-N,N-diethyl-2-(α-naphthoxy)propionamide, N,N-diethyl-2-(α-naphthoxy)propionamide, reference compound] | decomposes in the presence of UV radiation with colour change |  |  | 
2 |  | CCN(CC)C(=O)[C@@H](C)Oc1cccc2ccccc12 [D-(−)-N,N-diethyl-2-(α-naphthoxy)propionamide] | stable in the presence of UV light | 50 mg/1 ltr | 8 times | 1.7-2 times
